We go through nine substances from article PMC3360951 (Chemistry & biology, 2008).

The subject of data set [1] is CWR22R-H PSA-producing human prostate cancer xenograft. The experiment in a line: Serum free and total PSA per gram of tumor in CWR22R-H xenograft mice. Particulars: over the 10 day period between PSA measurements; 33 mg/kg/dose x 6. Format: in vivo.
Data set [2] shares this test system. The experiment in a line: Growth of subcutaneous CWR22R-H xenografts. Conditions: 33 mg/kg/dose iv x 6 doses (46: equimolar doses); significant only at day 6.
The nature of data set [3]: Initial toxicologic studies, intravenous doses in mice. Format: in vivo, mouse.
In data set [4] the target is T1, PSA (Homo sapiens, UniProt P07288). The experiment in a line: PSA activity assay, inhibition kinetics by progress curves. Format: biochemical.
T1 sequence (P07288 25-261): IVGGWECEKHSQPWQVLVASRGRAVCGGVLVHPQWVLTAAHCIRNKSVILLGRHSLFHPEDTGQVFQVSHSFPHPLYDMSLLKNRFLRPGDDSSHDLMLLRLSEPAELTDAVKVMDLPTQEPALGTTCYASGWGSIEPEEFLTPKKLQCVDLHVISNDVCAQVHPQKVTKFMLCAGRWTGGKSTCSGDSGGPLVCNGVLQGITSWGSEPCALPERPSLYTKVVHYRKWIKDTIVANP
In data set [5] the target is T1, PSA. Particulars: 1.5 μM inhibitor, 2 nM PSA, 37°C, 1 hr.
The subject of data set [6] is LNCaP, LAPC-4, CWR22R, C4-2B, DU145, PC3 human prostate cancer cell lines. The experiment in a line: MTT growth assay, panel of prostate cancer cell lines. Format: cell-based. Conditions: 100 nM; cells attached 24 hr before exposure. A general note: Tetrazolium dyes change colour on reduction, which living cells bring about.
For data set [7], the target named is dipeptidyl peptidase 4 (DPP-4) (Homo sapiens, UniProt P27487). Nature of the data set: Protease specificity: DPP-4 + AP-AFC. Format: biochemical.
Sequence of dipeptidyl peptidase 4 (DPP-4) (P27487 whole entry, species assumed): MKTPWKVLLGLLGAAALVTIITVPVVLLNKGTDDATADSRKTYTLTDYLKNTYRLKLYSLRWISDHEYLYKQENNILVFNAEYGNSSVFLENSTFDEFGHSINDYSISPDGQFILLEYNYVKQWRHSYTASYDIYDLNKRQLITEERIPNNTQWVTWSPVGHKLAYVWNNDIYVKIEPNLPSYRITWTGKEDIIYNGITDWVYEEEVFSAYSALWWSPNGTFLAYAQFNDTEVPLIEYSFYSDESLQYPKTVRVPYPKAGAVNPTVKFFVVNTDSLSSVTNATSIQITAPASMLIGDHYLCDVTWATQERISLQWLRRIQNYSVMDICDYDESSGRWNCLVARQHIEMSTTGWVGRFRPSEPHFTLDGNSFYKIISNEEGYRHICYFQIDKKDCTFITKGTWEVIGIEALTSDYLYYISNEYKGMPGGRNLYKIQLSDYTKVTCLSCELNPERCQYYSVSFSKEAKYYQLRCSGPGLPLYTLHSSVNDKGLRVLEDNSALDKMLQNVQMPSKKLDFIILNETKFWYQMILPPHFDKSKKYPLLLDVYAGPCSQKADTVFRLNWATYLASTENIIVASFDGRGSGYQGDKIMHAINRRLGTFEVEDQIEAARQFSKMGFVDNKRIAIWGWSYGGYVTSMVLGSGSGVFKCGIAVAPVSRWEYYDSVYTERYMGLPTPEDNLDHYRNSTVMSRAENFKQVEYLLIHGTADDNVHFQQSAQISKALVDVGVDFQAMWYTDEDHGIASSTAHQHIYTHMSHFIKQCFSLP
The subject of data set [8] is PSA-negative TSU human bladder cancer cells. The experiment in a line: Clonal survival assay, TSU. Format: cell-based. Conditions: under these same conditions (100 nM, 1 μM).
A further data set deals with cathepsin D (Bos taurus, UniProt P80209). The experiment in a line: Protease specificity: Cathepsin D Assay Kit. Conditions: in words; over a range of concentrations. Format: biochemical.
Sequence of cathepsin D (P80209 45-390): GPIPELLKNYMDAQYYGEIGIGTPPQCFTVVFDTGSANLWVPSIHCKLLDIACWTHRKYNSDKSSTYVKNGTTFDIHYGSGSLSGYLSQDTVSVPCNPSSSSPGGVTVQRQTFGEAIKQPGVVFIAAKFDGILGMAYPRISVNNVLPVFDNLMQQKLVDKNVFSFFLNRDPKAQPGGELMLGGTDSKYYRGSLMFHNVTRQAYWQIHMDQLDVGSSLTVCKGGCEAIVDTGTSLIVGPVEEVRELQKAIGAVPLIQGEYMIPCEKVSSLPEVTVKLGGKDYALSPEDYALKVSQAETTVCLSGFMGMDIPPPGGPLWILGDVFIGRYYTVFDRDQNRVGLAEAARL
A further data set concerns chymotrypsin. Nature of the data set: Protease specificity: chymotrypsin + suc-AAF-AMC. Format: biochemical.
Data set [9] concerns the target T1, PSA. Conditions: 500 nM inhibitor, 37°C, western blot.
The target in another data set is cathepsin B (Homo sapiens, UniProt P07858). Nature of the data set: Protease specificity: cathepsin B + Z-RR-AMC. Format: biochemical. Particulars: in words; over a range of concentrations.
In data set [10] the test system is PSA-positive LNCaP human prostate cancer cells. Nature of the data set: Clonal survival assay, LNCaP. Format: cell-based. Particulars: compared to vehicle-treated control.
For another data set, the system named is elastase. The experiment in a line: Protease specificity: elastase + suc-AAPV-AMC. Format: biochemical.
Another data set concerns trypsin. Nature of the data set: Protease specificity: trypsin + Bz-R-AMC. Format: biochemical.
[11] abbreviates: compared to full-length Z-SSKLL-H.

Turning to Mu-SSKL(boro)L, in [1], the “increase of free PSA levels/gram of tumor” value stood at 13% and the “increase of total PSA levels/gram of tumor” value is 1.85 fold. The “effect on tumor volume / tumor growth compared to vehicle control” value in [2] is reported as “slight decrease in tumor volume”. In addition, in data set [3] (dose of 100 mg/kg, mice), the “effect on body weight” value is reported as “transient weight loss”. The “lethality (fraction of the mice)” value in [3] (dose of 300 mg/kg) is “one-third”. Moreover, the “effects on mouse body weight” value in data set [3] (repeat intravenous doses of 33 mg/kg) is “no significant effects”. Moreover, the tolerability entry in [3] (repeat intravenous doses of 33 mg/kg, mice) was “well tolerated”.
Z-KL(boro)L [compound 36]: on PSA [4] (compared to Z-SSKL(boro)L), the “fold increase in Ki for PSA” value is 90 fold.
For Z-KL(boro)Nle [compound 37], the “fold increase in Ki for PSA” value on PSA [4] (compared to Z-SSKL(boro)Nle) is reported as 59 fold.
For the substance Z-SKLL-H [compound 8], the “fold higher Ki for PSA” value on PSA [4] (setting [11]) is ~ 6.5 fold.
Turning to Z-SSKIL-H [compound 4], the “fold higher Ki for PSA” value on PSA [4] (setting [11]) is reported as ~ 6 fold.
Usually Ki stands for a measure of affinity in units of concentration, obtained from inhibition or displacement. As for Z-SSKL(boro)L [compound 39], the “fold higher Ki for PSA” value on PSA [4] (compared to Z-SSL(boro)L) is given as ~ 8 fold. In addition, the Selectivity at PSA [4] (relative to PSA inhibition, PSA itself) is 1; in [7] (DPPIV relative to PSA inhibition), above 1500; with chymotrypsin (chymotrypsin relative to PSA inhibition) it was 60; in the data set with elastase (elastase relative to PSA inhibition) it was 22; in the data set on trypsin (trypsin relative to PSA inhibition), above 1500. The “PSA cleavage of the PTHrP peptide 1-34” value on PSA [5] is listed as “completely inhibited”. Also, the “effect on growth of cell lines” value in data set [6] is “marginal effect”. Further, in data set [7] (in words), the “inhibition of DPP-4” value is given as “did not inhibit”. In addition, the entries for the “inhibition of clonal survival” value in data set [8], in data set [10] (100 nM) and in [10] (1 μM) were ~ 25%, ~ 75% and ~ 85%, respectively. Besides, the “inhibition of cathepsin D” value against cathepsin D is given as “no inhibition”. For the same substance, the “fold higher Ki for chymotrypsin than for PSA” value in the data set with chymotrypsin turned out to be 60 fold. Besides, the inhibition constant (Ki) was 3.9 µM at chymotrypsin (chymotrypsin), 1.39 µM at elastase (elastase) and above 100 µM at trypsin (trypsin). In addition, the “protection of IGFBP3 from degradation by PSA” value at PSA [9] was “protected IGFBP3 from degradation by PSA”. Besides, at cathepsin B, the “inhibition of cathepsin B” value is listed as “no inhibition”. Besides, the “selectivity for PSA over elastase” value in the data set with elastase worked out at 22 times. Also, the inhibition of elastase result in the data set on elastase (in words) is listed as “Modest inhibition”. Further, the inhibition of trypsin entry in the data set with trypsin (in words) is listed as “did not inhibit”.
As to Z-SSKL(boro)Nle [compound 38], the “fold increase in Ki for PSA” value at PSA [4] (compared to Z-SSKL(boro)L) is recorded as ~ 5 fold.
As for Z-SSKLL-CH2OH [compound 26], the “inhibition of PSA” value at PSA [4] (in words) is “did not inhibit PSA”.
In the case of Z-SSKYL-H [compound 2], on PSA [4] (setting [11]), the “fold higher Ki for PSA” value is given as ~ 2 fold.
